Experimental data: paper PMC8347307, “Preclinical Bioavailability, Tissue Distribution, and Protein Binding Studies of Erinacine A, a Bioactive Compound from Hericium erinaceus Mycelia Using Validated LC-MS/MS Method” (Molecules, 2021)
Values joined by “and” are separate entries in the source; they are usually repeats but may differ in a detail not shown here. Equal entries are not always repeated. Where two headings read alike, the source gives them in different places.

Legend:
[1] = parameters: method as in PMID 31022946; details: rats, cited from earlier work
[2] = tested on: insoluble β amyloid and C-terminal fragment of amyloid precursor protein; parameters: method as in PMID 29463001; details: cited from earlier work
[3] = tested on: nerve growth factor (NGF); parameters: method as in doi:10.1016/S0040-4039(00)76760-8; details: in vitro; cited from earlier work
[4] = tested on: transient focal cerebral ischemia; parameters: method as in PMID 25167134; details: rat, intraperitoneal 1 mg/kg during the 5 days before onset of ischemia; cited from earlier work
[5] = tested on: DLD-1 colorectal adenocarcinoma cells; parameters: method as in doi:10.1016/j.jff.2015.12.031, PMID 31680958; details: in vitro; cited from earlier work
[6] = Protein binding in diluted (4×) tissue homogenates by rapid equilibrium dialysis; format: in vitro ADME, Sprague-Dawley rats; details: Sprague-Dawley, rat, 200 ng/mL, 37 °C, 4 h
Method: (§1) Then, the protein binding of erinacine A in the plasma and diluted (4×) tissue homogenates (brain, heart, lung, liver, kidney, stomach, large intestine, and small intestine) was determined by rapid equilibrium dialysis devices with 8000 Da molecular weight cut-off (#89809, Thermo Fisher Scientific, Waltham, MA, USA) according to manufacturer’s guidelines. In brief, the stock solution of erinacine A prepared in methanol was spiked into blank plasma and tissues to yield a final concentration of 200 ng/mL. Two hundred microliter aliquot of spiked samples were then dialysed against 350 µL aliquot of isotonic phosphate buffered saline at 37 °C on an orbital shaker at 250 rpm for 4 h. The resulting sample and buffer dialysates were removed from the chambers, matched with an equal volume of opposite blank matrix, and analyzed by LC-MS/MS. The protein binding of erinacine A is determined by the following Equations (1) and (2):% Free = (concentration at buffer chamber/concentration at sample chamber) × 100%(1) % Bound = 100% − % Free(2)

[7] = tested on: diluted (4×) tissue homogenates; test: as above; format: in vitro ADME, Sprague-Dawley rats; details: calculated from protein binding assay with equation of ref 36
Method: as §1

[8] = Pharmacokinetic study, erinacine A in rat plasma after oral and intravenous administration; format: in vivo, Sprague-Dawley rats
Method: Analysis of erinacine A concentration in samples was conducted by Agilent 1100 series HPLC system (Agilent, Waldbronn, Germany) equipped with a G1376A capillary pump and a G1313A autosampler. Chromatographic separation was carried out in an Agilent Eclipse XDB-C18 column (3.5 µm, 4.6 × 100 mm) at 25 °C. The mobile phase consists of water (A) and acetonitrile (B) with gradient elution program as follows: 0 min, 70% B; 0–5 min, 70–100% B; 5–8 min, 100% B; 8–8.1 min, 100–70% B; 8.1–11 min, 70% B. The flow rate was 0.35 mL/min and injection volume was 10 μL. Mass spectrometric detection was conducted on an API 3000 triple quadrupole instrument (Applied Biosystems, Vaughan, ON, Canada) in multiple reaction monitoring (MRM) mode with parameters as follows: nebulizer gas, 10 psi; collision gas, 2 psi; curtain gas, 7 psi; source voltage, 4.5 kV; source temperature, 275 °C. A turbo ionspray electrospray ionization (ESI) interface in positive ionization mode was used (Applied Biosystem, Foster City, CA, USA). The specific precursor to product ion transitions is [M+H] 433 → 301 for erinacine A and 197 → 169 for 2,4,5-TMBA (internal standard). Data analysis was performed with Analyst 1.4.2 software (Applied Biosystems, Concord, ON, Canada).
Before intravenous administration, animals were anesthetized with Avertin (2,2,2-Tribromoethanol, 0.071 M). Blood was collected into heparinized microtubes at scheduled time points and centrifuged at 2404× g for 10 min. The plasma (100 μL) was then mixed with equal volume of internal standard 2,4,5-TMBA (final concentration 25 ng/mL) and 300 μL of ethyl acetate. The mixture was vortexed and centrifuged at 13,845× g for 3 min. The supernatant was removed and the residue was reconstituted with isovolumetric acetonitrile for LC-MS/MS analysis. All animal procedures were approved by the Animal Care and Use Committee of Shih Chien University (IACUC#10405).
All experimental data were presented as mean ± standard deviation (mean ± SD). Maximal plasma concentration (Cmax), and time taken to achieve maximal plasma concentration (Tmax), half-life (T1/2), and area under the plasma concentration − time curve (AUC) were assessed on each animal using the software of WinNonlin (Pharsight Corp., Mountain View, CA, USA) by the non-compartmental model. Applying the pharmacokinetic data of oral administration (po) and intravenous administration (iv), the absolute bioavailability of erinacine A was calculated as [(AUCpo × Doseiv)/(AUCiv × Dosepo)] × 100%.

[9] = Excretion study, feces and urine, after single oral administration; format: in vivo, Sprague-Dawley rats
Method: […] Feces were freeze-dried and grinded before mixing with equal volume of internal standard 2,4,5-TMBA (final concentration 25 ng/mL) and 300 μL of ethyl acetate. Urines were mixed with equal volume of internal standard 2,4,5-TMBA (final concentration 25 ng/mL) and 300 μL of ethyl acetate. The mixture was vortexed and centrifuged at 13,845× g for 3 min. The supernatant was removed and the residue was reconstituted with isovolumetric acetonitrile for LC-MS/MS analysis.

rat plasma = test: Protein binding in plasma by rapid equilibrium dialysis; format: in vitro ADME, Sprague-Dawley rats
Method: as §1

[10] = Tissue distribution study after single oral administration; format: in vivo, Sprague-Dawley rats; details: for Tmax / concentration at 4 h: Sprague-Dawley, rat
Method: The homogenates (100 μL) were then mixed with equal volume of internal standard 2,4,5-TMBA (final concentration 25 ng/mL) and 300 μL of ethyl acetate. The mixture was vortexed and centrifuged at 13,845× g for 3 min. The supernatant was removed and the residue was reconstituted with isovolumetric acetonitrile for LC-MS/MS analysis.

[11] = rat, in vivo, iv, 5 mg/kg
DLD-1 xenografts = tested on: DLD-1 xenografts; parameters: method as in doi:10.1016/j.jff.2015.12.031, PMID 31680958; details: nude mice; cited from earlier work
[12] = Stability in plasma and tissues at 37 °C for 4 h; format: in vitro ADME, Sprague-Dawley rats; details: data not shown
[13] = tested on: nerve growth factor (NGF); parameters: method as in doi:10.1016/j.nutres.2005.06.001; details: rats, 8 mg/kg BW for 5 weeks from birth; cited from earlier work
[14] = oral mycelia powder equivalent to 50 mg/kg BW erinacine S
[15] = male, Sprague-Dawley, iv, rat plasma, I.V. erinacine A 5 mg/kg
[16] = male, Sprague-Dawley, po, rat plasma, P.O. mycelia extract 2.381 g/kg BW (equivalent to 50 mg/kg erinacine A)
[17] = 0–4 h after oral mycelia extract 2.381 g/kg BW
[18] = collected for 24 h, comparison with ref 22
[19] = unchanged erinacine A, cumulative

Compound: CC(C)C1=C2[C@H]3CCC4=C(O)C(=O)[C@@]5(O)CO[C@H]6O[C@@H]([C@@H]4[C@]65O)[C@]3(C)CC[C@@]2(C)CC1 [erinacine S]
- Maximum plasma concentration [1, 14]: 0.73 µg/mL
- Time to reach maximum plasma concentration [1, 14]: 270.00 min
- Absolute bioavailability [1]: 15.13%
- Reduction of insoluble β amyloid and C-terminal fragment of amyloid precursor protein [2]: not

Compound: CC(C)C1=C2C3=CC=C(C=O)C[C@H](O[C@@H]4OC[C@@H](O)[C@H](O)[C@H]4O)[C@]3(C)CC[C@@]2(C)CC1 [erinacine A]
- Nerve growth factor (NGF) stimulation [3]: stimulated nerve growth factor (NGF) in vitro
- Levels of acute inflammatory cytokines and ischemia-injury-induced neuronal cell death [4]: significantly reduced
- Proliferation of DLD-1 cells [5]: inhibited the proliferation
- fraction unbound at 4 h, 200 ng/mL ([6]; diluted (4×) brain homogenate, brain homogenate, highest, read-out: Binding with the brain (% bound) (converted)): 0.711
- fraction unbound at 4 h, 200 ng/mL ([6]; diluted (4×) stomach homogenate, stomach homogenate, lowest, read-out: Binding with the stomach (% bound) (converted)): 0.883
- Unbound brain-to-plasma concentration ratio [7]: close to unity
- AUC [8, 15]: 3120 ng·h/mL
- Cmax [8, 15]: 4530 ± 3420 ng/mL
- half-life [8, 15]: 0.0728 ± 0.0758 h
- Tmax ([8]; male, Sprague-Dawley, po, rat plasma, P.O. H. erinaceus mycelia extract 2.381 g/kg BW (equivalent to 50 mg/kg BW erinacine A), n = 6): 6 h
- AUC [8, 16]: 7620 ng·h/mL
- Cmax [8, 16]: 1400 ± 1140 ng/mL
- half-life [8, 16]: 8.19 ± 1.86 h
- concentration at 90 min ([8]; male, Sprague-Dawley, rat, plasma, 2.381 g/kg, oral, at 90 min, read-out: Plasma concentration, first peak): 640 ng/mL
- concentration at 150 min ([8]; male, Sprague-Dawley, rat, plasma, 2.381 g/kg, oral, at 150 min, read-out: Plasma concentration, second peak): 735 ng/mL
- concentration at 360 min ([8]; male, Sprague-Dawley, rat, plasma, 2.381 g/kg, oral, at 360 min, read-out: Plasma concentration, third peak): 1250 ng/mL
- bioavailability ([8]; male, Sprague-Dawley, rat, plasma, rats, [(AUCpo × Doseiv)/(AUCiv × Dosepo)] × 100%, po 50 mg/kg equivalent, iv 5 mg/kg, read-out: Absolute Bioavailability): 24.4%
- Earliest detection in plasma after oral administration ([8]; oral mycelia powder equivalent to 50 mg/kg BW erinacine A): 1 min
- Feces Concentration [9, 17]: 1.533 ± 2.625 µg/g
- Urine Concentration [9, 17]: 0.248 µg/mL and 0.248 ± 0.210 µg/mL
- Feces Concentration ([9]; 4–8 h): 81.853 ± 99.919 µg/g
- Urine Concentration ([9]; 4–8 h): 0.118 ± 0.103 µg/mL
- Feces Concentration ([9]; 8–12 h): 271.237 µg/g and 271.237 ± 404.357 µg/g
- Urine Concentration ([9]; 8–12 h): 0.059 ± 0.043 µg/mL
- Feces Concentration ([9]; 12–24 h): 122.824 ± 198.611 µg/g
- Urine Concentration ([9]; 12–24 h): 0.055 ± 0.066 µg/mL
- Feces Concentration ([9]; 24–36 h): 4.475 ± 6.477 µg/g
- Urine Concentration ([9]; 24–36 h): 0.021 ± 0.037 µg/mL
- Feces Concentration ([9]; 36–48 h): 0.062 ± 0.099 µg/g
- Urine Concentration ([9]; 36–48 h): 0.016 ± 0.018 µg/mL
- Total amount of unchanged compound in feces relative to erinacine S [9, 18]: more than 20 times
- Total amount of unchanged compound in urine relative to erinacine S [9, 18]: > 2 times
- Cumulative fecal excretion, % of administered dose ([9]; unchanged erinacine A): 2.823%
- Cumulative urinary excretion, % of administered dose ([9]; unchanged erinacine A): 0.017%
- Total Amount excreted in feces [9, 19]: 428.379 ± 368.502 µg
- Total Amount excreted in urine [9, 19]: 2.604 ± 2.149 µg
- Percent free in plasma (rat plasma; 200 ng/mL, 37 °C, 4 h equilibrium dialysis, n = 3): 84.00 ± 2.01%
- Nonspecific binding with the plasma or tissues (rat plasma; 37 °C up to 4 h, preliminary study, data not shown): negligible
- Tmax ([10]; brain, oral mycelia extract 2.381 g/kg BW, read-out: Time of peak concentration in brain): 8 h
- concentration at 4 h ([10]; heart, 4 h after oral mycelia extract 2.381 g/kg BW, read-out: Concentration in heart): 1110 ± 264 ng/g
- concentration at 4 h ([10]; kidney, 4 h after oral mycelia extract 2.381 g/kg BW, read-out: Concentration in kidney): 1280 ± 438 ng/g
- concentration at 4 h ([10]; large intestine, 4 h after oral mycelia extract 2.381 g/kg BW, read-out: Concentration in large intestine): 726 ± 336 ng/g
- concentration at 4 h ([10]; liver, 4 h after oral mycelia extract 2.381 g/kg BW, read-out: Concentration in liver): 2830 ± 641 ng/g
- concentration at 4 h ([10]; lung, 4 h after oral mycelia extract 2.381 g/kg BW, read-out: Concentration in lung): 1180 ± 339 ng/g
- concentration at 4 h ([10]; small intestine, 4 h after oral mycelia extract 2.381 g/kg BW, read-out: Concentration in small intestine): 25400 ± 20400 ng/g
- concentration at 4 h ([10]; stomach, 4 h after oral mycelia extract 2.381 g/kg BW (50 mg/kg erinacine A), read-out: Concentration in stomach): 56500 ± 27600 ng/g
- Tmax ([10]; oral mycelia extract 2.381 g/kg BW, read-out: Time of peak concentration in stomach, small intestine, large intestine, liver, heart, lung and kidney): 4 h
- Maximum concentration in brain ([10]; eight hours after oral mycelia extract 2.381 g/kg BW): 0.205 ± 0.079 µg/g
- Detectability in tissues at the end of 24 h ([10]; oral mycelia extract 2.381 g/kg BW): still detectable in GI tract, heart, and liver
- Blood-brain barrier penetration ([10]; rats, oral mycelia extract): can penetrate the blood-brain barrier of rats by the means of passive diffusion
- Toxicity signs [11]: no toxicity signs were observed
- Growth of DLD-1 xenografts (DLD-1 xenografts): inhibited
- Reduction of insoluble β amyloid and C-terminal fragment of amyloid precursor protein [2]: could reduce
- Stability in plasma and tissues [12]: no degradation was observed
- NGF content in hippocampus and locus coeruleus [13]: increased NGF content
